Experimental data published in PMC7072329, “Discovery of Kynurenines Containing Oligopeptides as Potent Opioid Receptor Agonists” (Biomolecules, 2020).
Several values for one entry are separate records, joined by “and”; a condition that tells them apart may be missing. Identical values can stand only once. Where a SMILES comes first, the peptide text is derived from it. [ ]: non-standard residue; d: D form. Kyn = Nc1ccccc1C(=O)C[C@H](N)C(=O)O

How the values were obtained:
[1] = target: NMDA receptor; test: [3H]MK-801 competition binding, rat brain membrane; conditions: read-out: Ki + S.E.M., displacement of [3H]MK-801
[2] = stability in human plasma; assay type: in vitro ADME; conditions: 37 °C
Protocol: Five microliters of K6 (500 μg in 250 μL of water) were added to 45 μL of fresh human plasma, then incubated at 37 ± 1 °C. Prepared samples were removed at several designated time points and incubation was stopped by adding an equal volume of the sequencing mixture (5% aqueous ZnSO4 solution, MeOH, and ACN; 5:3:2), which precipitated proteins, to achieve a final concentration of 100 μg/mL. The mixture was vortexed and centrifuged at 12,000× g for 5 min, then 20 μL of clear supernatant was directly injected into the HPLC system (Waters model 600 solvent pump and 2996 photodiode array detector, with XBridge BEH 130 C18, 4.6 × 250 mm, 5 μm). The samples were tested in three independents experiments (n = 3) and reported values represent the mean ± standard error (SEM). Data were analysed using simple regression analysis (significant deviation from zero: F1,13 = 171.9, p < 0.0001; Y = −0.9705 × X + 95.98).
Five calibration standards were injected into the HPLC-UV/Vis system. HPLC analyses were performed on a Waters liquid chromatograph equipped with a model 600 solvent pump and a 2996 photodiode array detector, and the mobile phase was degassed directly on-line by using Degassex, mod. DG-4400 (Phenomenex, Torrance, CA, USA). Empower v2.0 Software (Waters Spa, Milford, MA, USA) was used for data acquisition and elaboration. A reversed-phase packing column (XBridge BEH 130 C18, 4.6 × 250 mm, 5 μm; Waters Spa, Milford, MA, USA) was employed for the separation and the column was held at room temperature (22 ± 1 °C). K6 remaining concentrations at different times are reported below. For quantitative analyses, selective detection was performed at 210 nm. Gradient elution mode was performed using a mobile phase containing a […] water-ACN ratio as starting conditions and gradient program as reported. […]
All the sample solutions were previously centrifuged and 20 µL of the supernatant was injected into the HPLC-UV/Vis system. Calibration curves from 2 to 10 μg/mL were calculated by analyzing five non-zero concentration standards prepared in freshly spiked plasma solution in triplicate and extracted. All quantitative analyses were performed at 210 nm. Calibration curves were linear with r2 values always greater than 0.988 (n = 3). In reported chromatographic conditions, the retention times for K6 was 16.45 minutes (± 0.4, n = 20), the substance identity was confirmed by LS-MS analysis.
Time ( minutes) K6 Concentration (µg/mL) K6% of degradation

[3] = tested on: G-protein; test: functional [35S]GTPγS binding, guinea pig brain membrane homogenates; assay type: biochemical; conditions: ligand alone
Protocol: (§1) Rats and guinea pigs were decapitated, and their brains were quickly removed. The brains were used for membrane preparation following the procedure reported by Benyhe for binding and [^35S]GTPγS binding experiments, in agreement with the protocol of Zádor et al..
(§2) Homogenization of brains was performed in 30 volumes (v/w) of ice-cold 50 mM Tris-HCl pH 7.4 buffer with a Teflon-glass Braun homogenizer at 1500 rpm. The centrifuge was settled at 18,000 rpm for 20 min at 4 °C, the resulting supernatant discarded, and the pellet taken up in the original volume of Tris-HCl buffer. Incubation of homogenate at 37 °C for 30 min was performed in a shaking water-bath. Five volumes of 50 mM Tris-HCl pH 7.4 buffer were used to suspend the final pellet at −80 °C. For the [^35S]GTPγS binding experiments, the brains were homogenized with a Dounce in 5 volumes (v/w) of ice-cold TEM (Tris-HCl, EGTA, MgCl2) at −80 °C. The protein content of the membrane preparation was determined by the method of Bradford, BSA being used as a standard.
(§3) The functional [^35S]GTPγS binding experiments were performed as previously described. Briefly the membrane homogenates were incubated at 30 °C for 60 min in Tris-EGTA buffer (pH 7.4) composed of 50 mM Tris-HCl, 1 mM EGTA, 3 mM MgCl2, 100 mM NaCl, containing 20 MBq/0.05 cm^3 [^35S]GTPγS (0.05 nM) and increasing concentrations (10^−10 to 10^−5 M) of ligands. The experiments were performed in the presence of excess GDP (30 μM) in a final volume of 1 mL. Total binding was measured in the absence of test compounds, non-specific binding was determined in the presence of 10 μM unlabeled GTPγS. The reaction was terminated by rapid filtration under vacuum and washed three times with 5 mL ice-cold 50 mM Tris-HCl (pH 7.4) buffer through Whatman GF/B glass fibers. The radioactivity of the filters was detected in an UltimaGold^TM MV aqueous scintillation cocktail with a Packard Tricarb 2300TR liquid scintillation counter.
(§4) Experimental data are presented as means ± S.E.M. Sigmoid dose-response curves were fitted with GraphPad Prism 5.0 (GraphPad Prism Software Inc., San Diego, CA, USA). An unpaired t-test with two-tailed p value was performed to determine the significance level. In the competition binding assays, the ‘One site competition’ fitting was used to establish the equilibrium binding affinity (Ki value).
Figure S3. The effect of novel oligopeptides on G-protein activity in [35S]GTPγS binding assays in the absence or presence of the selective MOR antagonist cyprodime (Cyp) and the selective DOR antagonist naltrindole (NTI) in rat brain membrane homogenates (Figure A) and the selective KOR antagonist norbinaltorphine (nor-BNI) in guinea pig brain membrane homogenates (Figure B). […]

[4] = target: G-protein; test: functional [35S]GTPγS binding, rat brain membrane homogenates; assay type: biochemical
Protocol: as §1, §2, §3, §4
[35S]GTPγS binding assay in rat brain membrane homogenates. Figure S2 represents the specific binding of [35S]GTPγS in percentage in presence of increasing concentrations (10-10 - 10^-5 M) of the indicated ligands. “Total” on the x-axis indicates the basal activity of the monitored G-protein, which is measured in the absence of the ligands and represents the total specific binding of [35S]GTPγS. The level of basal activity was defined as 100% and it is presented with a dotted line. Points represent means ± S.E.M. for at least three experiments […]
Figure S3. The effect of novel oligopeptides on G-protein activity in [35S]GTPγS binding assays in the absence or presence of the selective MOR antagonist cyprodime (Cyp) and the selective DOR antagonist naltrindole (NTI) in rat brain membrane homogenates (Figure A) and the selective KOR antagonist norbinaltorphine (nor-BNI) in guinea pig brain membrane homogenates (Figure B). The level of basal activity was defined as 100% and it is presented with a dotted line. Points represent means ± S.E.M. for at least three experiments performed

C[C@@H](NC(=O)[C@@H](N)Cc1ccc(O)cc1)C(=O)NCC(=O)N[C@@H](Cc1ccccc1)C(=O)N[C@@H](CC(=O)c1ccccc1N)C(N)=O [Peptide K6] (H-Y[dA]GF[Kyn]-NH2) showed a Ki [1] greater than 10 µM, a K6% of degradation ([2]; 0 minutes) of 0% and a metabolised at 5 min, 200 μg/mL ([2]; fresh human plasma, 5 minutes, read-out: K6% of degradation) of 7%. It also gave a metabolised at 10 min, 200 μg/mL ([2]; fresh human plasma, 10 minutes, read-out: K6% of degradation) of 15%, a metabolised at 0.5 h, 200 μg/mL ([2]; fresh human plasma, 30 minutes, read-out: K6% of degradation) of 36% and a metabolised at 1 h, 200 μg/mL ([2]; fresh human plasma, 60 minutes, read-out: K6% of degradation) of 56%. The half-life at 200 μg/mL ([2]; plasma (fresh), linear regression, read-out: t1/2 in human plasma) was 47 min, the “Emax + S.E.M., Ligand” value [3] was 139.8 ± 2.3% and the “Potency Log EC50 ± S.E.M.” value ([4]; dose-response curves) was −5.984 ± 0.054. For the same compound, the “Maximal Stimulation (Efficacy) Emax ± S.E.M.” value ([4]; dose-response curves, basal = 100%) was 209.7 ± 3.4% and the “Emax + S.E.M., Ligand” value ([4]; ligand alone, bar graphs Figure S3) was 211% and 211.7 ± 3.1%.
